Experimental data: patent US20170190671A1, “BIS(ARYL)CATECHOL DERIVATIVES AS HERBICIDES” (E I DU PONT DE NEMOURS AND COMPANY, priority 2014, published 2017)

Key:
Format in all cases: in vivo
[1] = test system: sedge, umbrella (small-flower umbrella sedge, Cyperus difformis); experiment: Test B flooded paddy; details: Cyperus difformis, 336 h; 250 g ai/ha, Flood, 13 to 15 days, scale 0 (no effect) to 100 (complete control); read-out: Plant response rating, Sedge, Umbrella
Outline: (§1)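 Test compounds are applied straight into paddy water held 3 cm above the soil surface, with that flood maintained for the whole test. After 13 to 15 days in the greenhouse, each species is scored visually relative to controls.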

[2] = test system: ducksalad (Heteranthera limosa); experiment: Test B flooded paddy; details: Heteranthera limosa, 336 h; 250 g ai/ha, Flood, 13 to 15 days, scale 0 (no effect) to 100 (complete control); read-out: Plant response rating, Ducksalad
Outline: as §1

[3] = test system: barnyardgrass (Echinochloa crus-galli); experiment: Test B flooded paddy; details: Echinochloa crus-galli, 336 h; 250 g ai/ha, Flood, 13 to 15 days, scale 0 (no effect) to 100 (complete control); read-out: Plant response rating, Barnyardgrass
Outline: as §1

rice (Oryza sativa) = experiment: Test B flooded paddy; details: Oryza sativa, 336 h; 250 g ai/ha, Flood, 13 to 15 days, scale 0 (no effect) to 100 (complete control); read-out: Plant response rating, Rice
Outline: as §1

wild oat (Avena fatua) = experiment: Test C postemergence; details: Avena fatua, post-emergence, Postemergence, scale 0 to 100, read-out: Plant response rating, Oat, Wild
Outline: (§2)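 Greenhouse test, preemergence on seeded soil or postemergence on 1- to 4-leaf plants. Response is a visual 0-100 rating versus controls, taken 13-15 days after treatment.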

[4] = test system: waterhemp (common waterhemp, Amaranthus rudis); experiment: Test C postemergence; details: Amaranthus tuberculatus, post-emergence, Postemergence, scale 0 to 100, read-out: Plant response rating, Waterhemp
Outline: as §2

kochia (Kochia scoparia) [5] = experiment: Test C postemergence; details: Bassia scoparia, post-emergence, Postemergence, scale 0 to 100, read-out: Plant response rating, Kochia
Outline: as §2

[6] = test system: wheat (Triticum aestivum); experiment: Test A postemergence; details: Triticum aestivum, post-emergence, 240 h, 0 to 100 scale, read-out: Plant response rating, Wheat
Outline: (§3)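 Greenhouse pot test, loam/sand soil. Formulation: non-phytotoxic solvent mix plus surfactant. Pre: directed spray onto soil after sowing. Post: plants at 1–2 leaf, 2–10 cm. Rated visually vs untreated controls at ~10 d, 0 (no effect) to 100 (complete control).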

[7] = test system: blackgrass (Alopecurus myosuroides); experiment: Test A postemergence; details: Alopecurus myosuroides, post-emergence, 240 h, 0 to 100 scale, read-out: Plant response rating, Blackgrass
Outline: as §3

[8] = test system: barnyardgrass (Echinochloa crus-galli); experiment: Test A postemergence; details: Echinochloa crus-galli, post-emergence, 240 h, 0 to 100 scale, read-out: Plant response rating, Barnyardgrass
Outline: as §3

[9] = test system: giant foxtail (Setaria faberii); experiment: Test A postemergence; details: Setaria faberi, post-emergence, 240 h, 0 to 100 scale, read-out: Plant response rating, Foxtail, Giant
Outline: as §3

[10] = test system: Italian ryegrass (Lolium multiflorum); experiment: Test A postemergence; details: Lolium multiflorum, post-emergence, 240 h, 0 to 100 scale, read-out: Plant response rating, Ryegrass, Italian
Outline: as §3

[11] = test system: ragweed (common ragweed, Ambrosia elatior); experiment: Test A postemergence; details: Ambrosia artemisiifolia, post-emergence, 240 h, 0 to 100 scale, read-out: Plant response rating, Ragweed
Outline: as §3

corn (Zea mays) = experiment: Test A postemergence; details: Zea mays, post-emergence, 240 h, 0 to 100 scale
Outline: as §3

[12] = test system: pigweed (Amaranthus retroflexus); experiment: Test A postemergence; details: Amaranthus retroflexus, post-emergence, 240 h, 0 to 100 scale, read-out: Plant response rating, Pigweed
Outline: as §3

[13] = test system: galium (catchweed bedstraw, Galium aparine); experiment: Test A postemergence; details: Galium, post-emergence, 240 h, 0 to 100 scale, read-out: Plant response rating, Galium
Outline: as §3

kochia (Kochia scoparia) [14] = experiment: Test A postemergence; details: Bassia scoparia, post-emergence, 240 h, 0 to 100 scale, read-out: Plant response rating, Kochia
Outline: as §3

[15] = test system: barnyardgrass (Echinochloa crus-galli); experiment: Test A preemergence; details: Echinochloa crus-galli, pre-emergence, 240 h, 0 to 100 scale (0 no effect, 100 complete control), read-out: Barnyardgrass plant response rating
Outline: as §3

[16] = test system: giant foxtail (Setaria faberii); experiment: Test A preemergence; details: Setaria faberi, pre-emergence, 240 h, 0 to 100 scale (0 no effect, 100 complete control), read-out: Foxtail, Giant plant response rating
Outline: as §3

[17] = test system: Italian ryegrass (Lolium multiflorum); experiment: Test A preemergence; details: Lolium multiflorum, pre-emergence, 240 h, 0 to 100 scale (0 no effect, 100 complete control), read-out: Ryegrass, Italian plant response rating
Outline: as §3

[18] = test system: ragweed (common ragweed, Ambrosia elatior); experiment: Test A preemergence; details: Ambrosia artemisiifolia, pre-emergence, 240 h, 0 to 100 scale (0 no effect, 100 complete control), read-out: Ragweed plant response rating
Outline: as §3

[19] = test system: pigweed (Amaranthus retroflexus); experiment: Test A preemergence; details: Amaranthus retroflexus, pre-emergence, 240 h, 0 to 100 scale (0 no effect, 100 complete control), read-out: Pigweed plant response rating
Outline: as §3

kochia (Kochia scoparia) [20] = experiment: Test A preemergence; details: Bassia scoparia, pre-emergence, 240 h, 0 to 100 scale (0 no effect, 100 complete control), read-out: Kochia plant response rating
Outline: as §3

With N#Cc1cccc(Oc2ncc(C(F)(F)F)cn2)c1Oc1ncc(Cl)cn1 [Compound 39, 2-[(5-chloro-2-pyrimidinyl)oxy]-3-[[5-(trifluoromethyl)-2-pyrimidinyl]oxy]-benzonitrile] the pest or weed control at 250 g/ha [1] was 100%, the pest or weed control at 250 g/ha [2] was 100% and the pest or weed control at 250 g/ha [3] was 50%. The plant injury at 250 g/ha (rice (Oryza sativa)) was 50%, the pest or weed control at 31 g/ha (wild oat (Avena fatua); 31 g ai/ha) was 5% and the pest or weed control at 62 g/ha (wild oat (Avena fatua); 62 g ai/ha) was 10%. For the same molecule, the pest or weed control at 125 g/ha (wild oat (Avena fatua); 125 g ai/ha) was 15%, the pest or weed control at 31 g/ha ([4]; 31 g ai/ha) was 75% and the pest or weed control at 62 g/ha ([4]; 62 g ai/ha) was 85%. For the same molecule, the pest or weed control at 125 g/ha ([4]; 125 g ai/ha) was 95%, the pest or weed control at 16 g/ha (kochia (Kochia scoparia) [5]; 16 g ai/ha) was 90% and the pest or weed control at 31 g/ha (kochia (Kochia scoparia) [5]; 31 g ai/ha) was 95%. It also gave a pest or weed control at 62 g/ha (kochia (Kochia scoparia) [5]; 62 g ai/ha) of 100%, a pest or weed control at 125 g/ha (kochia (Kochia scoparia) [5]; 125 g ai/ha) of 100% and a plant injury at 31 g/ha ([6]; 31 g ai/ha) of 10%. For the same molecule, the plant injury at 125 g/ha ([6]; 125 g ai/ha) was 90%, the pest or weed control at 31 g/ha ([7]; 31 g ai/ha) was 80% and the pest or weed control at 125 g/ha ([7]; 125 g ai/ha) was 100%. For the same molecule, the pest or weed control at 31 g/ha ([8]; 31 g ai/ha) was 90%, the pest or weed control at 125 g/ha ([8]; 125 g ai/ha) was 90% and the pest or weed control at 31 g/ha ([9]; 31 g ai/ha) was 100%. For the same molecule, the pest or weed control at 125 g/ha ([9]; 125 g ai/ha) was 100%, the pest or weed control at 31 g/ha ([10]; 31 g ai/ha) was 40% and the pest or weed control at 125 g/ha ([10]; 125 g ai/ha) was 90%. The pest or weed control at 31 g/ha ([11]; 31 g ai/ha) was 40%, the pest or weed control at 125 g/ha ([11]; 125 g ai/ha) was 60% and the Corn plant response rating (crop injury, 0 = no effect, 100 = complete kill) at 31 g/ha (corn (Zea mays); 31 g ai/ha) was 60%. For the same molecule, the Corn plant response rating (crop injury, 0 = no effect, 100 = complete kill) at 125 g/ha (corn (Zea mays); 125 g ai/ha) was 100%, the pest or weed control at 31 g/ha ([12]; 31 g ai/ha) was 100% and the pest or weed control at 125 g/ha ([12]; 125 g ai/ha) was 100%. The pest or weed control at 31 g/ha ([13]; 31 g ai/ha) was 100%, the pest or weed control at 125 g/ha ([13]; 125 g ai/ha) was 100% and the pest or weed control at 31 g/ha (kochia (Kochia scoparia) [14]; 31 g ai/ha) was 100%. It also gave a pest or weed control at 125 g/ha (kochia (Kochia scoparia) [14]; 125 g ai/ha) of 100%, a pest or weed control at 31 g/ha ([15]; 31 g ai/ha) of 80% and a pest or weed control at 125 g/ha ([15]; 125 g ai/ha) of 100%. The pest or weed control at 31 g/ha ([16]; 31 g ai/ha) was 100%, the pest or weed control at 125 g/ha ([16]; 125 g ai/ha) was 100% and the pest or weed control at 31 g/ha ([17]; 31 g ai/ha) was 10%. It also gave a pest or weed control at 125 g/ha ([17]; 125 g ai/ha) of 90%, a pest or weed control at 31 g/ha ([18]; 31 g ai/ha) of 0% and a pest or weed control at 125 g/ha ([18]; 125 g ai/ha) of 40%. The pest or weed control at 31 g/ha ([19]; 31 g ai/ha) was 100%, the pest or weed control at 125 g/ha ([19]; 125 g ai/ha) was 100% and the pest or weed control at 31 g/ha (kochia (Kochia scoparia) [20]; 31 g ai/ha) was 90%. It also gave a pest or weed control at 125 g/ha (kochia (Kochia scoparia) [20]; 125 g ai/ha) of 100%.
